According to patent publication US7928189B2, “PCSK9 polypeptide fragment” (Ottawa Health Research Institute, priority 2008, dated 2011):
Where no end group is shown, it is not given here. [ ]: non-standard residue; d: D form. pS = N[C@@H](COP(=O)(O)O)C(=O)O

Assays:
Type in all cases: cell-based, human
[1] = tested on: LDLR levels in Huh7 cells; experiment: Kinase inhibitor incubation, LDLR immunoblot of total cell lysates; conditions: 16 hrs, SSP at 200 nm, GK at 25 μg/ml, relative to untreated cells
Description: The level of LDLR was quantified in Huh7 cells by immunoblotting of total cell lysates (50 μg) in response to overnight incubation without (control) or with two different kinase inhibitors, staurosporine (SSP at 200 nm) or GK (genistein at 25 μg/ml) (FIG. 11A). Huh7 cells were seeded onto 6 well plates and grown to 80% confluency in DMEM (Dulbecco's Modified Eagle's Medium)+10% (v/v) FBS (fetal bovine serum)+280 μg/ml GTM (gentamycin). Cells were then incubated for 16 hrs in the same media in the presence or absence of kinase inhibitor; staurosporine (SSP at 200 nm) or GK (genistein at 25 μg/ml). Cells were lysed in 1XRIPA buffer [50 mM Tris (pH 7.6), 150 mM NaCl, 1% (v/v) NP-40, 0.5% (w/v) DOC, 0.1% (w/v) SDS] in the presence of inhibitors, as above. Lysates were rotated at 4° C. for 30 min, centrifuged at 13,000×g for 3 min and supernatants collected. Protein concentrations in total cell lysates were determined by the Bradford dye-binding method using Bio-Rad's Protein Assay Kit (Bio-Rad; Mississauga, ON, CAN). LDLR levels were analyzed by immunoblotting following a standard protocol. The protein signals were quantified by densitometry using Syngene Chemigenius 2XE imager and Gene Tools software. […]

[2] = tested on: PCSK9 phosphorylation in Huh7 cells; experiment: Kinase inhibitor incubation, radiolabelling and immunoprecipitation of secreted PCSK9; conditions: 32P-orthophosphate, 16 hrs, SSP at 200 nm, GK at 25 μg/ml
Description: Untransfected and transfected HepG2 and Huh7 cells were grown to confluence as above. Prior to radiolabeling cells were incubated for 4 hours in serum-free DMEM without sodium phosphate (Invitrogen) or methionine/cysteine (Met/Cys) free DMEM (Invitrogen) and then incubated for 16 hrs in the same media in the presence of either 250 μCi 32P-orthophosphate or 250 μCi 35S-Met/Cys. Media and TCLs were harvested and immunoprecipitated as described above. Samples were fractionated through a 12% SDSPAGE. Following electrophoresis gels were dried and visualized by phosphoimaging using a Typhoon Imager. Signals were quantified using ImageQuant 5.2 software using the integer integration method when comparing samples within a lane and, for samples between lanes, by volume quantitation as recommended. The level of LDLR was quantified in Huh7 cells by immunoblotting of total cell lysates (50 μg) in response to overnight incubation without (control) or with two different kinase inhibitors, staurosporine (SSP at 200 nm) or GK (genistein at 25 μg/ml) (FIG. 11A). […] Protein concentrations in total cell lysates were determined by the Bradford dye-binding method using Bio-Rad's Protein Assay Kit (Bio-Rad; Mississauga, ON, CAN). LDLR levels were analyzed by immunoblotting following a standard protocol. […]

[3] = tested on: LDLR levels in Huh7 cells; experiment: Peptides added to cultured cells, LDLR immunoblot of total cell lysates; conditions: 24 hours, media minus FBS
Description: Cells were seeded onto 6 well plates and grown to ˜80% confluency. All cell lines were grown in DMEM (Dulbecco's Modified Eagle's Medium)+10% (v/v) FBS (fetal bovine serum)+280 μg/ml GTM (gentamycin). In this case, cells were incubated overnight in the same media in the absence of FBS for 12 hours. Peptides are then added to media minus FBS, and at indicated concentrations and this media+peptide is added onto cells cultured for additional 24 hours. Following this incubation we collected the spent media and total cell lysates (TCL) in the presence of protease inhibitor cocktail. 50 μg of proteins from TCL were then fractionated by SDS-PAGE, transferred to nitrocellulose and immunoblotted following standard protocols with a commercial anti LDLR antibody. The protein signals for LDLR were quantified by densitometry using Syngene Chemigenius 2XE imager and Gene Tools software. All values are made relative to values from untreated control cells set as 1 and presented as mean±SEM ([…]).

[4] = tested on: LDLR levels in Huh7 cells; experiment: Overexpression of PCSK9 phosphorylation mutants, LDLR immunoblot; conditions: 72 hours post-transfection, in comparison to wildtype PCSK9
Description: Huh7 cells were untransfected (C-control) or transiently transfected with cDNAs encoding either wild-type (WT) PCSK9, or the naturally-occurring propeptide mutants shown to decrease PCSK9 phosphorylation; A53V PCSK9 and R46L PCSK9 or the engineered propeptide mutants that prevent phosphorylation; S47A PCSK9, E49A PCAK9 and E49D PCSK9 or the engineered C-terminal mutants that prevent phosphorylation; S688A and E690A. 72 hours post-transfection spent media and total cell lysates were collected as described herein. 50 μg of total cell lysates were fractionated through a 7% NuPAGE Tris-Acetate Gel (Invitrogen) and immunoblotted for LDLR as described below. The protein signals were quantified by densitometry using Syngene Chemigenius 2XE imager and Gene Tools software. All values were made relative to values from control cells set as 1 and presented as mean±SEM (n=3). Data were analyzed using GraphPad Prism 5.0 statistical software with significance defined as p<0.05.

Compound	effect on LDLR degradation in comparison to control ([3]; peptide 10 μM)	effect on LDLR degradation in comparison to control ([3]; peptide 100 μM)	other results
O=c1c(-c2ccc(O)cc2)coc2cc(O)cc(O)c12 [GK, genistein]			level of LDLR [1]: not; phosphorylation of PCSK9 and its prodomain [2]: does not affect PCSK9 phosphorylation
CN[C@@H]1C[C@H]2O[C@@](C)([C@@H]1OC)n1c3ccccc3c3c4c(c5c6ccccc6n2c5c31)C(=O)NC4 [SSP, staurosporine]			level of LDLR [1]: increased levels of LDLR; phosphorylation of PCSK9 and its prodomain [2]: neither PCSK9 nor its prodomain are phosphorylated
RSRHLAQAS(phos)QELQ (RSRHLAQA[pS]QELQ) [SEQ ID NO:5, phosphorylated PCSK9 polypeptide fragment comprising phosphoSerine 688]	protect LDLR from degradation	protect LDLR from degradation	
RSRHLAQASQELQ (homo sapiens) [SEQ ID NO:4, unphosphorylated PCSK9 polypeptide fragment comprising Serine 688]	protect LDLR from degradation		
S47E: engineered propeptide mutant that mimics PCSK9 propeptide phosphorylation			level of LDLR / LDLR degradation [4]: increased LDLR degradation
VLALRS(phos)EEDGLAEAP (VLALR[pS]EEDGLAEAP) [SEQ ID NO:3, phosphorylated PCSK9 polypeptide fragment comprising phosphoSerine 47]	accentuate LDLR degradation	accentuate LDLR degradation	
VLALRSEEDGLAEAP (homo sapiens) [SEQ ID NO:2, unphosphorylated PCSK9 polypeptide fragment comprising Serine 47]	protect LDLR from degradation	protect LDLR from degradation	
